This is an account of results in publication PMC6481325, “Novel N,N-dialkyl cyanocinnamic acids as monocarboxylate transporter 1 and 4 inhibitors” (Oncotarget, 2019).

SMILES strings stand for the structures. pIC50: −log10 of the molar value.

Assay [1] relates to MDA-MB-231 tumor xenograft. The assay is described as follows: Tumor growth inhibition, MDA-MB-231 xenograft model. The format is in vivo. To be noted: SCID mice. Here is the method:
Figure 6 In vivo xenograft studies in WiDr and MDA-MB-231 tumor models (A) WiDr tumor xenograft study of compound 3 and compound 9. Mice (n = 8) were treated with 8 mg/kg of compound 3, intraperitoneally, two times a day. (B) Tumor growth inhibition study with compound 9 in MDA-MB-231 tumor xenograft model (n = 6). Mice were treated with compound 9 (70 mg/kg, ip, bid until day-4; qd from day-5), a combination of 9 and doxorubicin (0.5 mg/kg, ip, five days a week), and doxorubicin. (C) Tumor growth inhibition based on isolated tumor mass. ^*P < 0.05, ^**P < 0.01, ^***P < 0.001, ^****P < 0.0001. Schematic representation of (D) untreated tumor cells and (E) inhibition of MCT1 and MCT4 and decreased glycolysis and mitochondrial OxPhos in compound 9 treated tumor cells. Upward hollowed arrow indicates “increase” in function/amount and downward hollowed arrow indicates “decrease” in function/amount.
Group-1 was administered with compound 9, group-2 was given a combination of compound 9 and clinical breast cancer drug doxorubicin (AKSci catalog # E518), and group-3 was treated with doxorubicin alone. Group-4 was assigned as a control group and treated with vehicle (10% DMSO in saline). The treatment was continued up to 18 days and on day 20, the mice were euthanized and tumor masses isolated and weighed. […] Due to these reasons, higher dosages of compound 9 were required to produce significant anticancer efficacy in vivo. In all these studies, <20% of body weight loss was observed.
Tumor cells suspended in 1:1 matrigel-PBS were injected on right flank of female SCID mice (n = 6 mice/group, 10^7 MDA-MB-231 cells) or right flank of female athymic nude mice (n = 8 mice/group, 5 × 10^6 WiDr cells). Tumors were measured using calipers every 2–3 days and tumor volumes were calculated using the formula V = ab^2/2 where ‘a’ is the long diameter of the tumor and ‘b’ is the short diameter of the tumor. Tumor growth inhibition was determined using the formula % inhibition = [(C – T)/C] × 100 where C is average tumor weight of the control group and T is the average tumor weight of the test group.

In a further assay the test system is MDA-MB-231 cells. The assay is described as follows: SRB cell proliferation inhibition assay, MDA-MB-231. The format is cell-based. To be noted: 72 hours, average ± sem. As for the experimental part: MDA-MB-231 cells (ATCC, 2015) were grown in DMEM supplemented with 10% FBS and penicillin-streptomycin (50 U/ml, 50 μg/ml, Invitrogen). WiDr cells (ATCC, 2017) were cultured in MEM medium supplemented with 10% FBS (Atlanta Biologicals) and penicillin-streptomycin (50 U/ml, 50 μg/ml). For in vitro experiments, after seeding, cells were incubated at 37°C in 5% CO2 for 18–24 hours before the addition of test compounds.
Cells (5 × 10^4 cells/mL) were cultured in 48-well plates. Test compounds were dissolved in DMSO (final concentration of DMSO is <0.1%) and were added to culture wells at various concentrations in replicate and incubated for 72 hours. Growth medium was removed and the wells were washed with PBS and dried. SRB (0.5% in 1% acetic acid) was added to the wells and incubated for 30–45 minutes. The wells were washed 3 times with 1% acetic acid and dried. The cellular protein was dissolved in trizma base (10 mM, pH 10.2) and absorbance was recorded at 540 nm. Percent survival was calculated using the formula %Survival=Abstest compound/Abscontrol×100 .

For `COc1cc(N(c2ccccc2)c2ccccc2)ccc1/C=C(\C#N)C(=O)O` [Phenyl (9)], in assay [1] (9 70 mg/kg ip bid until day-4, qd from day-5, doxorubicin 0.5 mg/kg ip five days a week, treatment up to 18 days), the “tumor growth inhibition based on tumor volume” value is 58%. Further, the “tumor growth inhibition based on isolated tumor weights” value in assay [1] (same regimens, tumors isolated on day 20) stood at 56%. The “SRB IC50” value with MDA-MB-231 cells was “did not show any activity”. Further, the pIC50 with MDA-MB-231 cells (Homo sapiens) is < 4.60.

A word on the pIC50: it is −log10 of the IC50, conventionally taken in molar units.
